Measured values taken from patent publication US9073905B2, “Rock inhibitors” (Amakem NV, priority 2011, dated 2015).
pEC50, pIC50: −log10 of the molar value. “Also recorded” adds a separate entry of the source.

Tests used:
ROCK2 = ROCK2 (Homo sapiens, UniProt O75116); assay: Kinase inhibition (ROCKI & ROCKII), radiometric 33P-ATP biochemical assay; conditions: for inhibitory activity against ROCK (in words): summary of point C1.1
Experimental: On-target activity against ROCK was measured in a biochemical assay, using the following reagents: Base Reaction buffer; 20 mM Hepes (pH 7.5), 10 mM MgCl2, 1 mM EGTA, 0.02% Brij35, 0.02 mg/ml BSA, 0.1 mM Na3VO4, 2 mM DTT, 1% DMSO. Required cofactors are added individually to each kinase reaction. The reaction procedure first involved the preparation of a peptide substrate in a freshly prepared reaction buffer. Required cofactors were then added to the substrate solution. ROCK (1 nM final concentration) was then delivered to the substrate solution. After gentle mix, DMSO solutions of the test compounds were added to the enzyme. Substrate mix ^33P-ATP (specific activity 0.01 μCi/μl final) was then delivered into the reaction mixture to initiate the reaction. The kinase reaction was incubated for 120 min. at room temperature. Reactions were then spotted onto P81 ion exchange paper (Whatman #3698-915). Filters were washed extensively in 0.1% Phosphoric acid. A radiometric count was then performed and IC50 values were subsequently determined.
The IC50 values obtained (in accordance with the protocol set forth above) are represented as follows: “+++” means IC50 below 0.1 μM, “++” means IC50 between 0.1 μM and 1 μM; “+” means IC50 between 1 and 10 μM and “ND” means “not determined yet”.

[1] = test system: MLC-T18/S19 phosphorylation; assay: Myosin light chain phosphorylation assay (ELISA) in A7r5 cells; assay type: cell-based, Rat; conditions: for functional activity in the MLC phosphorylation assay (in words): FIG. 1; for pIC50 / pEC50: Rattus norvegicus; for pIC50: A7R5, comparison table, MLC phosphorylation, read-out: IC50 MLC-PP; for pEC50: MLC-T18/S19 phosphorylation, A7r5 cells, serum-free medium
Experimental: Rat smooth muscle cell line A7r5 is used. The endogenous expression of ROCK esults in a constitutive phosphorylation of the regulatory myosin light chain at T18/S19. A7r5 cells were plated in DMEM supplemented with 10% FCS in multiwall cell culture plates. After serum starvation overnight, cells were incubated with compounds in serum-free medium.
Quantification of MLC-T18/S19 phosphorylation is assesses in 96 well-plates via ELISA using a phspho-MLC-T18/S19 specific antibody and a secondary detection antibody. Raw data were converted into percent substrate phosphorylation relative to high controls, which were set to 100%.
EC50 values were determined using GraphPad Prism 5.01 software using a nonlinear regression curve fit with variable hill slope.
The EC50 values obtained (in accordance with the protocols set forth above) are represented as follows: “+++” means EC50 below 0.3 μM, “++” means EC50 between 0.3 μM and 1 μM; “+” means EC50 between 1 and 10 μM and “−” means EC50>10 μM.

[2] = Stability assay in human plasma; assay type: in vitro ADME; conditions: 1 μM compound, LC-MS/MS, read-out: t½ human plasma
Experimental: (§1) Compounds are incubated at a concentration of 1 μM in rat (mice or rabbit) or human plasma. Samples are taken at fixed time points and the remnant of compound is determined by LC-MS/MS after protein precipitation. Half life is expressed in minutes.

[3] = Stability towards drug metabolizing enzymes in lung S9; assay type: in vitro ADME, human; conditions: for half-life at 1 μM: human
Experimental: A 1 μM solution of the ROCK inhibitors is incubated with a reaction mixture containing lung S9 (from smokers) as well as the cofactors NADPH, UDPGA, PAPS and GSH. Samples are collected at 0, 15, 30 and 60 minutes post incubation. Negative control samples incubated with ROCK inhibitors and S9 fraction in the absence of cofactors are run in parallel. By using LC-MS/MS analysis, the percent of ROCK compounds remaining at each time point, the metabolic half-life of the ROCK compounds (expressed in minutes) and the metabolic half-life of the control compounds are determined.

[4] = Stability assay in rabbit aqueous humor; assay type: in vitro ADME; conditions: for half-life at 1 μM: rabbit, aqueous humor, read-out: t½ AH
Experimental: Compounds are incubated at a concentration of 1 μM in rabbit aqueous humor (AH). Samples are taken at fixed time points and the remnant of compound is determined by LC-MS/MS after protein precipitation. Half life is expressed in minutes.

[5] = test system: normotensive New Zeland White rabbits; assay: Intraocular pressure (IOP) lowering in normotensive rabbits; assay type: in vivo, rabbit
Experimental: A detailed example of the IOP lowering effects of the compounds of the invention is here provided for compound 14. Compound 14 was here formulated as a 0.3% solution of pH=6.91 in Water/PEG 400 1:1.
IOP of to normotensive New Zeland White rabbits (n=3) was measured using a Tonolab tonometer, at 9h00, prior to compound administration.
At 9h30, one drop (50 μl) of the formulated solution was administered to rabbits, in the right eye (OD); while one drop (50 μl) of the vehicle solution was administered to the left eye (OS). IOP was then recorded in 1 h intervals until 17 h.

[6] = Stability in plasma, species not stated; assay type: in vitro ADME; conditions: for half-life at 1 μM: comparison table, plasma species not given, read-out: t½ Plasma; for half life in plasma (in words): point C.2.1
Experimental: as §1

[7] = Stability assay in mice plasma; assay type: in vitro ADME; conditions: mouse, 1 μM compound, LC-MS/MS, read-out: t½ mice plasma
Experimental: as §1

[8] = ROCK 1 nM, 120 min at room temperature
[9] = 1 μM, lung S9 from smokers, cofactors NADPH, UDPGA, PAPS, GSH
[10] = lung S9 (from smokers), text summary of point C.2.2, read-out: half-life in lung tissue

Chain of ROCK2 (O75116 whole entry, species assumed): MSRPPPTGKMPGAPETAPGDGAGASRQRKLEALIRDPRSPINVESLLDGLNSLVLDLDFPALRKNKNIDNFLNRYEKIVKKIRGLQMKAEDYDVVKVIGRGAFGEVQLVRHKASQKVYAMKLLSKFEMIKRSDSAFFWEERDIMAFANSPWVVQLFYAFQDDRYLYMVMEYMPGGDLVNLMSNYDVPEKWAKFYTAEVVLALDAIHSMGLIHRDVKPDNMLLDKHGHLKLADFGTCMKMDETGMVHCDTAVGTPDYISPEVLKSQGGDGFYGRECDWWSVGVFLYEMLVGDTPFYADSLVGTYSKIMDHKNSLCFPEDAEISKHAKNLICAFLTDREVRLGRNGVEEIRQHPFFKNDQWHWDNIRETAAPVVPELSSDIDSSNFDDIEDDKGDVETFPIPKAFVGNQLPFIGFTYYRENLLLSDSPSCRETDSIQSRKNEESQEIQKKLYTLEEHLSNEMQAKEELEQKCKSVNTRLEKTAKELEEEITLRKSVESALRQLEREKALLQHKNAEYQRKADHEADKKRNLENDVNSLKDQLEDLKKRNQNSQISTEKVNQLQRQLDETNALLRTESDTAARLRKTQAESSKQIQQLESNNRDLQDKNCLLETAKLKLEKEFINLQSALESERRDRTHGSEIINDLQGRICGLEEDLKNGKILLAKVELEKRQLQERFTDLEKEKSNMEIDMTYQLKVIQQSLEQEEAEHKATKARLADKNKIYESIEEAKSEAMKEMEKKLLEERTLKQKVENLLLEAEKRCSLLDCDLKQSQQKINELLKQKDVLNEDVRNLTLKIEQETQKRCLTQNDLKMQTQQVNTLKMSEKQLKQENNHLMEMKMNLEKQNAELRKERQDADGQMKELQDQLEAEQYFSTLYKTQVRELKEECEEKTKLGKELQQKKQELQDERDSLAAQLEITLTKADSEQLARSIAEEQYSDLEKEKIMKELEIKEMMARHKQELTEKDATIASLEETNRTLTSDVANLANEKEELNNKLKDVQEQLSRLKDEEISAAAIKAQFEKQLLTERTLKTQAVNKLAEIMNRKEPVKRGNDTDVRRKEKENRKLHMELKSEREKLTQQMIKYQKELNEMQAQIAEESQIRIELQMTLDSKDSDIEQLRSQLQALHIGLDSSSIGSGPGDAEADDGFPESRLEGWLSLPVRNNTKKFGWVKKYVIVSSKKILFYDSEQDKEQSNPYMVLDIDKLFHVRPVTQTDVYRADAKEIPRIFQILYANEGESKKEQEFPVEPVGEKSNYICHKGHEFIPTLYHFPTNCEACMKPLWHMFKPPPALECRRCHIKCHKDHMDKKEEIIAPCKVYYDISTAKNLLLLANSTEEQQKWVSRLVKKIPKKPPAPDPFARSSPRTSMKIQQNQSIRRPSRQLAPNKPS

Row | pIC50 (ROCK2; [8]) | pIC50 (ROCK2; comparison table) | inhibitory activity against ROCK (in words) (ROCK2) | pIC50 [1] | pEC50 [1] | half-life at 1 μM [2] [min] | half-life at 1 μM ([4]; 1 μM in rabbit aqueous humor) [min] | half-life at 1 μM ([4]; comparison table) [min] | half-life at 1 μM [6] [min] | half life in plasma (in words) [6] | half-life at 1 μM [7] [min] | t½ human lung S9 [3, 9] [min] | t½ lung S9 ([3]; comparison table) [min] | half-life at 1 μM [3, 10] [min] | SMILES | functional activity in the MLC phosphorylation assay (in words) [1] | other results
1 | > 7.00 | 8.47 | strong inhibitory activity | 6.62 | > 6.52 | < 5 | > 120 | > 120 | < 5 | short half life | – | – | – | – | O=C(OCC1CCCO1)c1cccc(CN2CCCC(Nc3ccc4[nH]ncc4c3)C2)c1 (centres unmarked) [Compound 14] | functionally active compound; also recorded: display functional activity | half-life at 1 μM ([3]; lung S9 (from smokers), comparison table, read-out: t½ lung S9): 9 min; half-life in aqueous humor compared with plasma (in words) ([4]; text summary of point C.2.3): significantly longer half-life in aqueous humor than in plasma; time after administration until which the IOP decrease is statistically significant (P≦0.05) ([5]; 0.3% solution, one drop at 9h30, until the 14 h time point): 4.30 h; IOP decrease following administration (in words) ([5]; 0.3% solution, one drop, visible until 17 h): pronounced IOP decrease; Average IOP OD (mmHg) ([5]; 9 h, right eye (OD), prior to compound administration (baseline), n=3): 9.89 mmHg; Average IOP OD (mmHg) ([5]; 10 h, one drop (50 μl) 0.3% solution in Water/PEG 400 1:1 at 9h30, right eye (OD)): 7.67 mmHg; Average IOP OD (mmHg) ([5]; 11 h, one drop (50 μl) 0.3% solution at 9h30, right eye (OD)): 6.44 mmHg; Average IOP OD (mmHg) ([5]; 12 h, one drop (50 μl) 0.3% solution at 9h30, right eye (OD)): 6.22 mmHg; Average IOP OD (mmHg) ([5]; 13 h, one drop (50 μl) 0.3% solution at 9h30, right eye (OD)): 7.00 mmHg; Average IOP OD (mmHg) ([5]; 14 h, one drop (50 μl) 0.3% solution at 9h30, right eye (OD)): 6.44 mmHg; Average IOP OD (mmHg) ([5]; 15 h, one drop (50 μl) 0.3% solution at 9h30, right eye (OD)): 7.67 mmHg; Average IOP OD (mmHg) ([5]; 16 h, one drop (50 μl) 0.3% solution at 9h30, right eye (OD)): 7.89 mmHg; Average IOP OD (mmHg) ([5]; 17 h, one drop (50 μl) 0.3% solution at 9h30, right eye (OD)): 8.11 mmHg
2 | > 7.00 | 8.72 | strong inhibitory activity | 6.40 | 6.00 to 6.52 | 5 | – | – | < 5 | short half life | 2.5 | >240 | >240 | > 240 | O=C(NCCSC1CCOC1=O)c1cccc(CN2CCCC(Nc3cccc4cnccc34)C2)c1 (centres unmarked) [Compound 26] | display functional activity | –
3 | > 7.00 | – | strong inhibitory activity | – | 6.00 to 6.52 | < 5 | – | – | – | short half life | 2.2 | >240 | – | > 240 | O=C(NCCSC1CCOC1=O)c1cccc(CN2CCCC(Nc3ccc4[nH]ncc4c3)C2)c1 (centres unmarked) [Compound 28] | display functional activity | –
4 | > 7.00 | 7.60 | – | 6.80 | > 6.52 | 25 | > 120 | 98 | 22 | – | – | – | >240 | – | COC(=O)c1cccc(NC(=O)c2cccc(CN3CCC(Nc4cccc5cnccc45)C3)c2)c1 (centres unmarked) [Compound 32] | – | half-life at 1 μM ([3]; 1 μM, lung S9 from smokers, cofactors NADPH, UDPGA, PAPS, GSH, read-out: t½ human lung S9): > 240 min
